Experimental data: patent US20250270172A1, “Pyrimidine Derivatives As Modulators of the 5-HT2A Serotonin Receptor Useful For The Treatment of Disorders Related Thereto” (Arena Pharmaceuticals, Inc., priority 2020, published 2025)

Target: 5-HT2A (Homo sapiens (Human), UniProt P28223)
Assay: Radioligand binding assay, [^3H]5-HT competition, 5-HT2A
Conditions: [^3H]5-HT radioligand, membranes of HEK293 cells expressing recombinant 5-HT2A; Ki from IC50 by Cheng-Prusoff; read-out: 5-HT2A serotonin binding Ki value

Chain of 5-HT2A (P28223 whole entry): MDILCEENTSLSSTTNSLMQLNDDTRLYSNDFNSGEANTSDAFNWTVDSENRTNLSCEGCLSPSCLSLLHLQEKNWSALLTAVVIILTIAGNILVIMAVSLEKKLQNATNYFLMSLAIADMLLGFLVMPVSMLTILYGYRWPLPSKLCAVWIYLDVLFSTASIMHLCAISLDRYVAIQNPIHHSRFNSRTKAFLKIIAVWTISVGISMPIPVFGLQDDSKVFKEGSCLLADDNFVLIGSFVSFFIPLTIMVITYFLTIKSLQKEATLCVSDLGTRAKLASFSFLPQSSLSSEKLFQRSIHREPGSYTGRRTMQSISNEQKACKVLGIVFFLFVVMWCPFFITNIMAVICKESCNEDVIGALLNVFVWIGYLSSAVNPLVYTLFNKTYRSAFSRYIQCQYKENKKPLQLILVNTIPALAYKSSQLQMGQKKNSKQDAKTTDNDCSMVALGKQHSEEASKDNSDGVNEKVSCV

Row | SMILES | Ki
1 | Cc1ncnc(C)c1-c1cc(NC(=O)CC2CCOC2)ccc1OCCN1CCCC1 (stereo not shown) [Compound 228, N-(3-(4,6-dimethylpyrimidin-5-yl)-4-(2-(pyrrolidin-1-yl)ethoxy)phenyl)-2-(tetrahydrofuran-3-yl)acetamide] | 13 nM
2 | COCCNCCOc1ccc(NC(=O)c2c(F)cnn2C)cc1-c1c(C)ncnc1C [Compound 375, N-(3-(4,6-dimethylpyrimidin-5-yl)-4-(2-((2-methoxyethyl)amino)ethoxy)phenyl)-4-fluoro-1-methyl-1H-pyrazole-5-carboxamide] | 13.3 nM
3 | CCCN(CCF)CCOc1ccc(NC(=O)C2CC2)cc1-c1c(C)ncnc1C [Compound 363, N-[3-(4,6-dimethylpyrimidin-5-yl)-4-[2-[2-fluoroethyl(propyl)amino]ethoxy]phenyl]cyclopropanecarboxamide] | 107 nM
4 | Cc1noc(CC(=O)Nc2ccc(OCCN3CCCC3)c(-c3c(C)ncnc3C)c2)n1 [Compound 265, N-(3-(4,6-dimethylpyrimidin-5-yl)-4-(2-(pyrrolidin-1-yl)ethoxy)phenyl)-2-(3-methyl-1,2,4-oxadiazol-5-yl)acetamide] | 18.2 nM
5 | COCCNCCOc1ccc(NC(=O)c2cccc(F)c2)cc1-c1c(C)ncnc1C [Compound 373, N-(3-(4,6-dimethylpyrimidin-5-yl)-4-(2-((2-methoxyethyl)amino)ethoxy)phenyl)-3-fluorobenzamide] | 1.73 nM
6 | Cc1ncnc(C)c1-c1cc(NC(=O)Cc2cc(C)n(C)n2)ccc1OCCN1CCCC1 [Compound 267, 2-(1,5-dimethyl-1H-pyrazol-3-yl)-N-(3-(4,6-dimethylpyrimidin-5-yl)-4-(2-(pyrrolidin-1-yl)ethoxy)phenyl)acetamide] | 692 nM
7 | Cc1ncnc(C)c1-c1cc(NC(=O)Cc2ccc(F)cn2)ccc1OCCN1CCCC1 [Compound 278, N-(3-(4,6-dimethylpyrimidin-5-yl)-4-(2-(pyrrolidin-1-yl)ethoxy)phenyl)-2-(5-fluoropyridin-2-yl)acetamide] | 32.6 nM
8 | Cc1ncnc(C)c1-c1cc(NC(=O)c2ccccc2)ccc1OCCN1CC(O)C1 [Compound 389, N-[3-(4,6-dimethylpyrimidin-5-yl)-4-[2-(3-hydroxyazetidin-1-yl)ethoxy]phenyl]benzamide] | 11.2 nM
9 | Cc1ncnc(C)c1-c1cc(NC(=O)[C@H]2C[C@H](F)C2)ccc1OCCN1CCCC1 [Compound 303, (1r,3r)-N-(3-(4,6-dimethylpyrimidin-5-yl)-4-(2-(pyrrolidin-1-yl)ethoxy)phenyl)-3-fluorocyclobutane-1-carboxamide] | 9.36 nM
10 | Cc1ncnc(C)c1-c1cc(NC(=O)COC2CC2)ccc1OCCN1CCCC1 [Compound 241, 2-(cyclopropoxy)-N-[3-(4,6-dimethylpyrimidin-5-yl)-4-(2-pyrrolidin-1-ylethoxy)phenyl]acetamide] | 27.8 nM
11 | Cc1ncnc(C)c1-c1cc(NC(=O)c2ccnn2C)ccc1OC[C@H]1CCCCN1 [Compound 437, N-[3-(4,6-dimethylpyrimidin-5-yl)-4-[[(2R)-2-piperidyl]methoxy]phenyl]-2-methyl-pyrazole-3-carboxamide] | 10.7 nM
12 | Cc1ncnc(C)c1-c1cc(NC(=O)C2CCCO2)ccc1OCCN1CCCC1 (stereo not shown) [Compound 230, N-(3-(4,6-dimethylpyrimidin-5-yl)-4-(2-(pyrrolidin-1-yl)ethoxy)phenyl)tetrahydrofuran-2-carboxamide] | 252 nM
13 | Cc1ncnc(C)c1-c1cc(NC(=O)Cn2cccn2)ccc1OCCN1CCCC1 [Compound 236, N-(3-(4,6-dimethylpyrimidin-5-yl)-4-(2-(pyrrolidin-1-yl)ethoxy)phenyl)-2-(1H-pyrazol-1-yl)acetamide] | 21.4 nM
14 | Cc1ncnc(C)c1-c1cc(NC(=O)C2CC2)ccc1OCCN(C)CCS(C)(=O)=O [Compound 364, N-(3-(4,6-dimethylpyrimidin-5-yl)-4-(2-(methyl(2-(methylsulfonyl)ethyl)amino)ethoxy)phenyl)cyclopropanecarboxamide] | 368 nM
15 | CCCN(C)CCOc1ccc(NC(=O)C2CC2)cc1-c1c(C)ncnc1C [Compound 367, N-(3-(4,6-dimethylpyrimidin-5-yl)-4-(2-(methyl(propyl)amino)ethoxy)phenyl)cyclopropanecarboxamide] | 37.6 nM
16 | Cc1ncnc(C)c1-c1cc(NC(=O)c2cnccc2F)ccc1OCCN1CCC1 [Compound 331, N-(4-(2-(azetidin-1-yl)ethoxy)-3-(4,6-dimethylpyrimidin-5-yl)phenyl)-4-fluoronicotinamide] | 23.7 nM
17 | Cc1ncnc(C)c1-c1cc(NC(=O)CN2CCCC2)ccc1OCCN1CCCC1 [Compound 287, N-[3-(4,6-dimethylpyrimidin-5-yl)-4-(2-pyrrolidin-1-ylethoxy)phenyl]-2-pyrrolidin-1-yl-acetamide] | 3250 nM
18 | Cc1ncnc(C)c1-c1cc(NC(=O)c2ncoc2C)ccc1OCCN1CCCC1 [Compound 221, N-(3-(4,6-dimethylpyrimidin-5-yl)-4-(2-(pyrrolidin-1-yl)ethoxy)phenyl)-5-methyloxazole-4-carboxamide] | 11.4 nM
19 | Cc1ncnc(C)c1-c1cc(NC(=O)[C@@H](F)C(C)C)ccc1OC[C@H]1CCCCN1 [Compound 443, (S)—N-(3-(4,6-dimethylpyrimidin-5-yl)-4-(((R)-piperidin-2-yl)methoxy)phenyl)-2-fluoro-3-methylbutanamide] | 18.8 nM

Row | SMILES | Ki
20 | Cc1ncnc(C)c1-c1cc(NC(=O)C2CC2)ccc1OCCN1CCN2C(=O)CCC2C1 (stereo not shown) [Compound 346, N-(3-(4,6-dimethylpyrimidin-5-yl)-4-(2-(6-oxohexahydropyrrolo[1,2-a]pyrazin-2 (1H)-yl)ethoxy)phenyl)cyclopropanecarboxamide] | 31 nM
21 | Cc1ncnc(C)c1-c1cc(NC(=O)c2cnoc2C)ccc1OCCN1CCCC1 [Compound 220, N-(3-(4,6-dimethylpyrimidin-5-yl)-4-(2-(pyrrolidin-1-yl)ethoxy)phenyl)-5-methylisoxazole-4-carboxamide] | 22 nM
22 | Cc1ncnc(C)c1-c1cc(NC(=O)c2ccccc2F)ccc1OCCN1CCCC1 [Compound 298, N-(3-(4,6-dimethylpyrimidin-5-yl)-4-(2-(pyrrolidin-1-yl)ethoxy)phenyl)-2-fluorobenzamide] | 16.9 nM
23 | Cc1ncnc(C)c1-c1cc(NC(=O)C2CC2)ccc1OC[C@H]1CCCN1 [Compound 408, (R)—N-(3-(4,6-dimethylpyrimidin-5-yl)-4-(pyrrolidin-2-ylmethoxy)phenyl)cyclopropanecarboxamide] | 29.9 nM
24 | Cc1ncnc(C)c1-c1cc(NC(=O)c2ccccc2)ccc1OC[C@H]1CCCCN1 [Compound 448, (R)—N-(3-(4,6-dimethylpyrimidin-5-yl)-4-(piperidin-2-ylmethoxy)phenyl)benzamide] | 1.7 nM
25 | Cc1ncnc(C)c1-c1cc(NC(=O)CNC2CC2)ccc1OCCN1CCCC1 [Compound 288, 2-(Cyclopropylamino)-N-[3-(4,6-dimethylpyrimidin-5-yl)-4-(2-pyrrolidin-1-ylethoxy)phenyl]acetamide] | 81.2 nM
26 | Cc1ncnc(C)c1-c1cc(NC(=O)Cc2ccccc2)ccc1OCCN1CCCC1 [Compound 251, N-(3-(4,6-dimethylpyrimidin-5-yl)-4-(2-(pyrrolidin-1-yl)ethoxy)phenyl)-2-phenylacetamide] | 2.05 nM
27 | Cc1ncnc(C)c1-c1cc(NC(=O)CCc2ccn(C)n2)ccc1OCCN1CCCC1 [Compound 270, N-[3-(4,6-dimethylpyrimidin-5-yl)-4-(2-pyrrolidin-1-ylethoxy)phenyl]-3-(1-methylpyrazol-3-yl)propanamide] | 51.6 nM
28 | CCc1cc(C(=O)Nc2ccc(OCCN3CCCC3)c(-c3c(C)ncnc3C)c2)[nH]n1 [Compound 205, N-(3-(4,6-dimethylpyrimidin-5-yl)-4-(2-(pyrrolidin-1-yl)ethoxy)phenyl)-3-ethyl-1H-pyrazole-5-carboxamide] | 10.4 nM
29 | Cc1ncoc1CC(=O)Nc1ccc(OCCN2CCCC2)c(-c2c(C)ncnc2C)c1 [Compound 226, N-(3-(4,6-dimethylpyrimidin-5-yl)-4-(2-(pyrrolidin-1-yl)ethoxy)phenyl)-2-(4-methyloxazol-5-yl)acetamide] | 714 nM
30 | Cc1ncnc(C)c1-c1cc(NC(=O)c2c(F)cnn2C)ccc1OC1CNC1 [Compound 402, N-(4-(azetidin-3-yloxy)-3-(4,6-dimethylpyrimidin-5-yl)phenyl)-4-fluoro-1-methyl-1H-pyrazole-5-carboxamide] | 2.87 nM
31 | Cc1ncoc1C(=O)Nc1ccc(O[C@@H]2CCCNC2)c(-c2c(C)ncnc2C)c1 [Compound 415, (R)—N-(3-(4,6-dimethylpyrimidin-5-yl)-4-(piperidin-3-yloxy)phenyl)-4-methyloxazole-5-carboxamide] | 101 nM
32 | Cc1ncnc(C)c1-c1cc(NC(=O)C2(O)CC2)ccc1OC[C@H]1CCCCN1 [Compound 440, (R)—N-(3-(4,6-dimethylpyrimidin-5-yl)-4-(piperidin-2-ylmethoxy)phenyl)-1-hydroxycyclopropane-1-carboxamide] | 65.1 nM
33 | Cc1ncnc(C)c1-c1cc(NC(=O)CCc2ccccc2)ccc1OCCN1CCCC1 [Compound 255, N-(3-(4,6-dimethylpyrimidin-5-yl)-4-(2-(pyrrolidin-1-yl)ethoxy)phenyl)-3-phenylpropanamide] | 1.72 nM
34 | Cc1nocc1C(=O)Nc1ccc(OCCN2CCCC2)c(-c2c(C)ncnc2C)c1 [Compound 219] | 6.51 nM
35 | Cc1ncnc(C)c1-c1cc(N(C)C(=O)C2CC2)ccc1OCCN1CCCC1 [Compound 279, N-[3-(4,6-dimethylpyrimidin-5-yl)-4-(2-pyrrolidin-1-ylethoxy)phenyl]-N-methyl-cyclopropanecarboxamide] | 65800 nM
36 | Cc1ncnc(C)c1-c1cc(NC(=O)c2ccnn2C)ccc1OC1CNC1 [Compound 399, N-(4-(azetidin-3-yloxy)-3-(4,6-dimethylpyrimidin-5-yl)phenyl)-1-methyl-1H-pyrazole-5-carboxamide] | 12.8 nM
37 | Cc1ncnc(C)c1-c1cc(NC(=O)C2CC2)ccc1OCCN(C)CCO [Compound 357, N-(3-(4,6-dimethylpyrimidin-5-yl)-4-(2-((2-hydroxyethyl)(methyl)amino)ethoxy)phenyl)cyclopropanecarboxamide] | 47.3 nM
